Laboratory results: patent US9695103B2 (priority 2014, dated 2017)
“And” between values parts separate entries of the source, which are not always exact repeats. Identical values can stand only once.

Tests used:
daphnias = assay: Biocidal activity against crustaceans (daphnias), FR. 1.39.2007,03223 procedure; conditions: test time 96 h; for Number of survived daphnias (the average over parallel set of samples), Test sample: control sample 10
[1] = tested on: E. coli No. 906, S. aureus No. 1257, clinical strain P. aeruginosa; assay: Bactericidal activity, summary statement over investigated strains; type: cell-based; conditions: concentration of 2.0%, time of exposure from 30 min
S. aureus No. 1257 = assay: Bactericidal activity: exposure of bacterial culture in salt solution, neutralization, inoculation on solid nutrient medium; type: cell-based; parameters: key: NG - no growth; CG - confluent growth
[2] = tested on: clinical strain P. aeruginosa; assay: as above; type: cell-based; parameters: key: NG - no growth; CG - confluent growth
fungal spores = assay: Fungicidal activity according to GOST 30028.4-2006, resistance of treated materials to fungal spores; type: cell-based; conditions: additive content 5 % wt.
E. coli No. 906 = assay: Bactericidal activity: exposure of bacterial culture in salt solution, neutralization, inoculation on solid nutrient medium; type: cell-based; parameters: key: NG - no growth; CG - confluent growth
[3] = 0.00001 % wt. in aqueous medium
[4] = Paper impregnated with latex SKS 65 GP

C=CC(=O)[O-].O=C([O-])c1ccccc1.[Cu+2] [Copper acrylate-benzoate, reference compound]
Daphnia death rate in test sample, % of control sample (daphnias; [3]): 0 % of control sample | Number of survived daphnias (the average over parallel set of samples), Test sample (daphnias; [3]): 10 | Daphnia death rate in test sample, % of control sample (daphnias; 0.0001 % wt. in aqueous medium): 0 % of control sample | Number of survived daphnias (the average over parallel set of samples), Test sample (daphnias; 0.0001 % wt. in aqueous medium): 10 | Daphnia death rate in test sample, % of control sample (daphnias; 0.001 % wt. in aqueous medium): 0 % of control sample | Number of survived daphnias (the average over parallel set of samples), Test sample (daphnias; 0.001 % wt. in aqueous medium): 10 | Daphnia death rate in test sample, % of control sample (daphnias; 0.01 % wt. in aqueous medium): 0 % of control sample | Number of survived daphnias (the average over parallel set of samples), Test sample (daphnias; 0.01 % wt. in aqueous medium): 10 | Daphnia death rate in test sample, % of control sample (daphnias; 0.1 % wt. in aqueous medium): 10 % of control sample | Number of survived daphnias (the average over parallel set of samples), Test sample (daphnias; 0.1 % wt. in aqueous medium): 9 | Daphnia death rate in test sample, % of control sample (daphnias; 1 % wt. in aqueous medium): 20 % of control sample | Number of survived daphnias (the average over parallel set of samples), Test sample (daphnias; 1 % wt. in aqueous medium): 8

C=CC(=O)[O][Cu][O]C(=O)C(O)C(O)C(=O)O (centres unmarked) [Copper acrylate-tartrate]
bactericidal effect against investigated strains [1]: stable bactericidal effect | Bactericidal activity, growth of S. aureus 1257 (S. aureus No. 1257; 1.5 % wt., exposure 60 min): NG | Bactericidal activity, growth of S. aureus 1257 (S. aureus No. 1257; 2.0 % wt., exposure 5 min): NG | Bactericidal activity, growth of S. aureus 1257 (S. aureus No. 1257; 2.0 % wt., exposure 15 min): NG | Bactericidal activity, growth of S. aureus 1257 (S. aureus No. 1257; 2.0 % wt., exposure 30 min): NG | Bactericidal activity, growth of S. aureus 1257 (S. aureus No. 1257; 2.0 % wt., exposure 60 min): NG | Bactericidal activity, growth of S. aureus 1257 (S. aureus No. 1257; 3.0 % wt., exposure 5 min): NG | Bactericidal activity, growth of S. aureus 1257 (S. aureus No. 1257; 3.0 % wt., exposure 15 min): NG | Bactericidal activity, growth of S. aureus 1257 (S. aureus No. 1257; 3.0 % wt., exposure 30 min): NG | Bactericidal activity, growth of P. aeruginosa ([2]; 1.5 % wt., exposure 30 min): CG | Bactericidal activity, growth of P. aeruginosa ([2]; 1.5 % wt., exposure 60 min): CG | Bactericidal activity, growth of P. aeruginosa ([2]; 2.0 % wt., exposure 5 min): CG | Bactericidal activity, growth of P. aeruginosa ([2]; 2.0 % wt., exposure 15 min): >300 CFU | Bactericidal activity, growth of P. aeruginosa ([2]; 2.0 % wt., exposure 60 min): NG | Bactericidal activity, growth of P. aeruginosa ([2]; 3.0 % wt., exposure 5 min): NG | Bactericidal activity, growth of P. aeruginosa ([2]; 3.0 % wt., exposure 15 min): NG | Bactericidal activity, growth of P. aeruginosa ([2]; 3.0 % wt., exposure 30 min): NG | Tolerance time (fungal spores; [4]): 16 days | Tolerance time (fungal spores; Polyvinyl chloride emulsion): 17 days | Bactericidal activity, growth of E. coli 906 (E. coli No. 906; 1.5 % wt., exposure 60 min): NG | Bactericidal activity, growth of E. coli 906 (E. coli No. 906; 2.0 % wt., exposure 5 min): NG | Bactericidal activity, growth of E. coli 906 (E. coli No. 906; 2.0 % wt., exposure 15 min): NG | Bactericidal activity, growth of E. coli 906 (E. coli No. 906; 2.0 % wt., exposure 30 min): NG | Bactericidal activity, growth of E. coli 906 (E. coli No. 906; 2.0 % wt., exposure 60 min): NG | Bactericidal activity, growth of E. coli 906 (E. coli No. 906; 3.0 % wt., exposure 5 min): NG | Bactericidal activity, growth of E. coli 906 (E. coli No. 906; 3.0 % wt., exposure 15 min): NG | Bactericidal activity, growth of E. coli 906 (E. coli No. 906; 3.0 % wt., exposure 30 min): NG

C=CC(=O)[O][Zn][O]C(=O)C(O)(CC(=O)O)CC(=O)O [Zinc acrylate-citrate]
Tolerance time (fungal spores; Polyvinyl chloride emulsion): 17 days

C=CC(=O)[O-].CC(O)C(=O)[O-].[Zn+2] (centres unmarked) [Zinc acrylate-lactate]
Daphnia death rate in test sample, % of control sample (daphnias; 0.0001 % wt. in aqueous medium): 90 % of control sample | Number of survived daphnias (the average over parallel set of samples), Test sample (daphnias; 0.0001 % wt. in aqueous medium): 1 | Daphnia death rate in test sample, % of control sample (daphnias; 0.001 % wt. in aqueous medium): 100 % of control sample and 70 % of control sample | Daphnia death rate in test sample, % of control sample (daphnias; 0.01 % wt. in aqueous medium): 100 % of control sample | Number of survived daphnias (the average over parallel set of samples), Test sample (daphnias; 0.01 % wt. in aqueous medium): 0 | Daphnia death rate in test sample, % of control sample (daphnias; 0.1 % wt. in aqueous medium): 100 % of control sample | Number of survived daphnias (the average over parallel set of samples), Test sample (daphnias; 0.1 % wt. in aqueous medium): 0 | Daphnia death rate in test sample, % of control sample (daphnias; 1 % wt. in aqueous medium): 100 % of control sample | Number of survived daphnias (the average over parallel set of samples), Test sample (daphnias; 1 % wt. in aqueous medium): 0

C=CC(=O)[O][Zn][O]C(=O)CC(=O)O [Zinc acrylate-malonate]
bactericidal effect against investigated strains [1]: stable bactericidal effect | Bactericidal activity, growth of S. aureus 1257 (S. aureus No. 1257; 1.5 % wt., exposure 5 min): >300 CFU | Bactericidal activity, growth of S. aureus 1257 (S. aureus No. 1257; 1.5 % wt., exposure 15 min): 85 CFU | Bactericidal activity, growth of S. aureus 1257 (S. aureus No. 1257; 1.5 % wt., exposure 30 min): 35 CFU and 43 CFU | Bactericidal activity, growth of S. aureus 1257 (S. aureus No. 1257; 2.0 % wt., exposure 5 min): NG | Bactericidal activity, growth of S. aureus 1257 (S. aureus No. 1257; 2.0 % wt., exposure 15 min): NG | Bactericidal activity, growth of S. aureus 1257 (S. aureus No. 1257; 2.0 % wt., exposure 30 min): NG | Bactericidal activity, growth of S. aureus 1257 (S. aureus No. 1257; 2.0 % wt., exposure 60 min): NG | Tolerance time (fungal spores; [4]): 20 days | Tolerance time (fungal spores; Polyvinyl chloride emulsion): 18 days | Bactericidal activity, growth of E. coli 906 (E. coli No. 906; 1.5 % wt., exposure 5 min): >300 CFU | Bactericidal activity, growth of E. coli 906 (E. coli No. 906; 1.5 % wt., exposure 15 min): 78 CFU | Bactericidal activity, growth of E. coli 906 (E. coli No. 906; 1.5 % wt., exposure 30 min): 45 CFU and 53 CFU | Bactericidal activity, growth of E. coli 906 (E. coli No. 906; 1.5 % wt., exposure 60 min): 5 CFU and 4 CFU | Bactericidal activity, growth of E. coli 906 (E. coli No. 906; 2.0 % wt., exposure 5 min): 1 CFU | Bactericidal activity, growth of E. coli 906 (E. coli No. 906; 2.0 % wt., exposure 15 min): NG | Bactericidal activity, growth of E. coli 906 (E. coli No. 906; 2.0 % wt., exposure 30 min): NG | Bactericidal activity, growth of E. coli 906 (E. coli No. 906; 2.0 % wt., exposure 60 min): NG

C=C(C)C(=O)O.O=C([O-])CC(O)C(=O)[O-].[Zn+2] (centres unmarked) [Zinc methacrylate-malate]
Tolerance time (fungal spores; Polyvinyl chloride emulsion): 9 days

copper methacrylate-glycolate
bactericidal effect against investigated strains [1]: stable bactericidal effect | Number of survived daphnias (the average over parallel set of samples), Test sample (daphnias; [3]): 1 | Number of survived daphnias (the average over parallel set of samples), Test sample (daphnias; 0.0001 % wt. in aqueous medium): 0 | Number of survived daphnias (the average over parallel set of samples), Test sample (daphnias; 0.001 % wt. in aqueous medium): 0 | Number of survived daphnias (the average over parallel set of samples), Test sample (daphnias; 0.01 % wt. in aqueous medium): 0 | Number of survived daphnias (the average over parallel set of samples), Test sample (daphnias; 0.1 % wt. in aqueous medium): 0 | Number of survived daphnias (the average over parallel set of samples), Test sample (daphnias; 1 % wt. in aqueous medium): 0 | Bactericidal activity, growth of S. aureus 1257 (S. aureus No. 1257; 1.5 % wt., exposure 30 min): CG | Bactericidal activity, growth of S. aureus 1257 (S. aureus No. 1257; 1.5 % wt., exposure 60 min): >300 CFU | Bactericidal activity, growth of S. aureus 1257 (S. aureus No. 1257; 2.0 % wt., exposure 5 min): CG | Bactericidal activity, growth of S. aureus 1257 (S. aureus No. 1257; 2.0 % wt., exposure 15 min): >300 CFU | Bactericidal activity, growth of S. aureus 1257 (S. aureus No. 1257; 2.0 % wt., exposure 30 min): NG | Bactericidal activity, growth of S. aureus 1257 (S. aureus No. 1257; 2.0 % wt., exposure 60 min): NG | Bactericidal activity, growth of S. aureus 1257 (S. aureus No. 1257; 3.0 % wt., exposure 5 min): NG | Bactericidal activity, growth of S. aureus 1257 (S. aureus No. 1257; 3.0 % wt., exposure 15 min): NG | Bactericidal activity, growth of S. aureus 1257 (S. aureus No. 1257; 3.0 % wt., exposure 30 min): NG | Bactericidal activity, growth of P. aeruginosa ([2]; 1.5 % wt., exposure 30 min): CG | Bactericidal activity, growth of P. aeruginosa ([2]; 1.5 % wt., exposure 60 min): CG | Bactericidal activity, growth of P. aeruginosa ([2]; 2.0 % wt., exposure 5 min): CG | Bactericidal activity, growth of P. aeruginosa ([2]; 2.0 % wt., exposure 15 min): >300 CFU | Bactericidal activity, growth of P. aeruginosa ([2]; 2.0 % wt., exposure 60 min): NG | Bactericidal activity, growth of P. aeruginosa ([2]; 3.0 % wt., exposure 5 min): NG | Bactericidal activity, growth of P. aeruginosa ([2]; 3.0 % wt., exposure 15 min): NG | Bactericidal activity, growth of P. aeruginosa ([2]; 3.0 % wt., exposure 30 min): NG | Tolerance time (fungal spores; [4]): 8 days | Tolerance time (fungal spores; Paper impregnated with petrolatum base): 8 days | Tolerance time (fungal spores; Polyvinyl chloride emulsion): 10 days | Bactericidal activity, growth of E. coli 906 (E. coli No. 906; 1.5 % wt., exposure 30 min): CG | Bactericidal activity, growth of E. coli 906 (E. coli No. 906; 1.5 % wt., exposure 60 min): >300 CFU | Bactericidal activity, growth of E. coli 906 (E. coli No. 906; 2.0 % wt., exposure 5 min): CG | Bactericidal activity, growth of E. coli 906 (E. coli No. 906; 2.0 % wt., exposure 15 min): >300 CFU | Bactericidal activity, growth of E. coli 906 (E. coli No. 906; 2.0 % wt., exposure 30 min): NG | Bactericidal activity, growth of E. coli 906 (E. coli No. 906; 2.0 % wt., exposure 60 min): NG | Bactericidal activity, growth of E. coli 906 (E. coli No. 906; 3.0 % wt., exposure 5 min): NG | Bactericidal activity, growth of E. coli 906 (E. coli No. 906; 3.0 % wt., exposure 15 min): NG | Bactericidal activity, growth of E. coli 906 (E. coli No. 906; 3.0 % wt., exposure 30 min): NG
